The target in assay [1] is T1, phosphorylated VEGF-R2Δ50 (FLVK-P) (Homo sapiens, UniProt P35968, DEL940-989/E990V).
T1 construct: VEGF-R2Δ50 contains residues 806-939 and 990-1171; made in house; host or cells: baculovirus/insect cells
The assay can be described thus: VEGF-R2 coupled spectrophotometric assay, phosphorylated construct (FLVK-P). In kind it is biochemical. An excerpt:
A construct (VEGF-R2Δ50) of the cytosolic domain of human vascular endothelial growth factor receptor 2 (VEGF-R2) lacking the 50 central residues of the 68 residues of the kinase insert domain was expressed in a baculovirus/insect cell system. Of the 1356 residues of full-length VEGF-R2, VEGF-R2Δ50 contains residues 806-939 and 990-1171, and also one point mutation (E990V) within the kinase insert domain relative to wild-type VEGF-R2. See commonly assigned, co-pending U.S. patent application Ser. No. 09/390,326, filed Sep. 7, 1999, incorporated by reference herein, for discussion of VEGF constructs and expression systems. Autophosphorylation of the purified construct was performed by incubation of the enzyme at a concentration of 4 μM in the presence of 3 mM ATP and 40 mM MgCl2 in 100 mM Hepes, pH 7.5, containing 5% glycerol and 5 mM DTT, at 4° C. for 2 h. […] See Parast et al., Biochemistry, 37, 16788-16801 (1998).
The production of ADP from ATP that accompanies phosphoryl transfer was coupled to oxidation of NADH using phosphoenolpyruvate (PEP) and a system having pyruvate kinase (PK) and lactic dehydrogenase (LDH). The oxidation of NADH was monitored by following the decrease of absorbance at 340 nm (e340=6.22 cm^−1 mM^−1) using a Beckman DU 650 spectrophotometer. Assay conditions for phosphorylated VEGF-R2Δ50 (indicated as FLVK-P in the tables below) were the following: 1 mM PEP; 250 μM NADH; 50 units of LDH/mL; 20 units of PK/mL; 5 mM DTT; 5.1 mM poly(E4Y1); 1 mM ATP; and 25 mM MgCl2 in 200 mM Hepes, pH 7.5. Assay conditions for unphosphorylated VEGF-R2Δ50 (indicated as FLVK in the tables) were the following: 1 mM PEP; 250 μM NADH; 50 units of LDH/mL; 20 units of PK/mL; 5 mM DTT; 20 mM poly(E4Y1); 3 mM ATP; and 60 mM MgCl2 and 2 mM MnCl2 in 200 mM Hepes, pH 7.5. Assays were initiated with 5 to 40 nM of enzyme. Ki values were determined by measuring enzyme activity in the presence of varying concentrations of test compounds. The data were analyzed using Enzyme Kinetic and Kaleidagraph software.

Assay [2] has as its system human umbilical vein endothelial cells (HUVEC). The assay can be described thus: HUVEC proliferation assay (VEGF-stimulated, MTT). The format is cell-based. The method, then:
This assay determines the ability of a test compound to inhibit the growth factor-stimulated proliferation of human umbilical vein endothelial cells (“HUVEC”). HUVEC cells (passage 3-4, Clonetics, Corp.) were thawed into EGM2 culture medium (Clonetics Corp) in T75 flasks. Fresh EGM2 medium was added to the flasks 24 hours later. Four or five days later, cells were exposed to another culture medium (F12K medium supplemented with 10% fetal bovine serum (FBS), 60 μg/ml endothelial cell growth supplement (ECGS), and 0.1 mg/ml heparin). Exponentially-growing HUVEC cells were used in experiments thereafter. Ten to twelve thousand HUVEC cells were plated in 96-well dishes in 100 μl of rich, culture medium (described above). The cells were allowed to attach for 24 hours in this medium. The medium was then removed by aspiration and 105 μl of starvation media (F12K+1% FBS) was added to each well. After 24 hours, 15 μl of test agent dissolved in 1% DMSO in starvation medium or this vehicle alone was added into each treatment well; the final DMSO concentration was 0.1%. One hour later, 30 μl of VEGF (30 ng/ml) in starvation media was added to all wells except those containing untreated controls; the final VEGF concentration was 6 ng/ml. Cellular proliferation was quantified 72 hours later by MTT dye reduction, at which time cells were exposed for 4 hours MTT (Promega Corp.). Dye reduction was stopped by addition of a stop solution (Promega Corp.) and absorbance at 595 λ was determined on a 96-well spectrophotometer plate reader.

The test system of assay [3] is lung cancer cells (line MV522). Nature of the assay: Cancer cell proliferation (MV522) assay (MTT). The format is cell-based. How it is done: The protocol for assessing cellular proliferation in cancer cells is similar to that used for assessments in HUVEC cells. Two thousand lung cancer cells (line MV522, acquired from American Tissue Cultural Collection) were seeded in growth media (RPMI1640 medium supplemented with 2 mM glutamine and 10% FBS). Cells are allowed to attach for 1 day prior to addition of test agents and/or vehicles. Cells are treated simultaneously with the same test agents used in the HUVEC assay. Cellular proliferation is quantified by MTT dye reduction assay 72 hours after exposure to test agents. The total length of the assay is 4 days vs. 5 for HUVEC cells because MV522 cells are not exposed to starvation medium.

In assay [4] the target is T2, unphosphorylated VEGF-R2Δ50 (FLVK) (Homo sapiens, UniProt P35968, DEL940-989/E990V).
T2 construct: VEGF-R2Δ50 contains residues 806-939 and 990-1171; made in house; host or cells: baculovirus/insect cells
Nature of the assay: VEGF-R2 coupled spectrophotometric assay, unphosphorylated construct (FLVK).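 Note: Baculovirus-expressed cytosolic kinase domain, ADP formation linked via pyruvate kinase and lactate dehydrogenase to NADH oxidation, read as falling absorbance at 340 nm.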 The format is biochemical.

Setting [5] is: Homo sapiens, HUVEC, read-out: HUVEC IC50.
Where [6] appears, read: unphosphorylated VEGF-R2 construct.
[7] abbreviates: Homo sapiens, HUVEC proliferation with albumin, read-out: Huvec + Albumin IC50.

Each structure is given as a SMILES string. Counter-ions that a name gives are not always drawn. Like-named read-outs stand apart in the source and are kept apart here. A value given as a limit tells only on which side of the number the result lay.

T2 sequence (P35968 with tags, fused parts or gaps DEL940-989/E990V limits assumed): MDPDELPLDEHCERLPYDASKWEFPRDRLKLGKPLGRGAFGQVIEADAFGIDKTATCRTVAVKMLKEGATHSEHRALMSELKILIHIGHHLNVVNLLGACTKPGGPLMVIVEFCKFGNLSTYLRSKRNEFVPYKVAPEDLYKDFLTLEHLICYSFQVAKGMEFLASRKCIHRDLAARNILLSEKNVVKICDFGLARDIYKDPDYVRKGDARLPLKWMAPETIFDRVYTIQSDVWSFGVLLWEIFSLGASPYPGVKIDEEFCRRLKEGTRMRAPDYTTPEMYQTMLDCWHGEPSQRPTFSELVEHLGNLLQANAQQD
T1 sequence (P35968 with tags, fused parts or gaps DEL940-989/E990V limits assumed): as above

The term Ki denotes the equilibrium dissociation constant of an inhibitor or competing ligand from its target. A high value points to lower affinity. Broadly, the IC50 is the concentration that gives 50% inhibition. As to `Cc1cc(NC(=O)c2cccc(SCc3cnccn3)c2)ccc1C(C)C` [Example D-1, N-(4-Isopropyl-3-methylphenyl)-3-[(pyrazin-2-yl)methylsulfanyl]benzamide], in assay [1], the Ki stood at 28 nM. Also, the IC50 in assay [2] (setting [5]) is 520 nM; in assay [3] (MV522) it was > 10 µM.
As to `N#Cc1ccc(NC(=O)c2cccc(CSc3ncnc4[nH]ncc34)c2)cc1C(F)(F)F` [Example B-12, N-[4-cyano-3-(trifluoromethyl)phenyl]-3-[(1H-pyrazolo[3,4-d]pyrimidin-4-yl-sulfanyl)methyl]benzamide], the affinity in assay [1], expressed as Ki, was 28 nM. For the same compound, the IC50 was 530 nM in assay [2] (setting [5]) and > 10 µM in assay [3] (MV522).
In assay [4], `O=C(Nc1ccc2c(c1)CCCN2)c1ccc(F)c(OCc2cncc3ccccc23)c1` [Example O-1, 4-Fluoro-N-(1,2,3,4-tetrahydroquinolin-6-yl)-3-(isoquinolin-4-ylmethoxy)-benzamide bistrifluoroacetic acid salt] displayed a Ki of 5.5 nM. For the same compound, the IC50 in assay [2] (setting [5]) was > 300 nM; in assay [3] (MV522), < 3 µM.
Consider `Cc1cc(NC(=O)c2cccc(CCc3cncc4ccccc34)c2)ccc1C(C)C` [Example S-3, N-(4-Isopropyl-3-methyl-phenyl)-3-(2-isoquinolin-4-yl-ethyl)-benzamide], for which the results for the Ki in assay [1] and in assay [4] were 8.7 nM and 0.76 nM, respectively. In assay [2] (setting [5]), the concentration for half-maximal inhibition (IC50) amounted to 180 nM.
A word on the inhibition: it is the share of the control response that was lost under treatment. On to `CC1(C)CCC(C)(C)c2cc(NC(=O)c3cccc(OCc4cncc5ccccc45)c3)ccc21` [Example R-3, 3-(Isoquinolin-4-ylmethoxy)-N-(5,5,8,8-tetramethyl-5,6,7,8-tetrahydronaphthalen-2-yl)-benzamide], for which the inhibition at 5 µM in assay [1] (@ 5 μM, read-out: FLVK-P percent inhibition) came to 67%. The values for the IC50 in assay [2] (setting [5]) and in assay [3] (MV522) were 50 nM and 9.7 µM, respectively.
As for `Nc1ccc(CCc2cccc(C(=O)Nc3ccc(N4CCNCC4)c(C(F)(F)F)c3)c2)cn1` [AA-2, 3-[2-(6-Amino-pyridin-3-yl)-ethyl]-N-(4-piperazin-1-yl-3-trifluoromethyl-phenyl)-benzamide dihydrochloride], in assay [4] (setting [6]), the Ki stood at 25 nM. The half-maximal inhibitory concentration (IC50) in assay [2] (setting [7]) was 80 nM.
In assay [1], `CSc1cc(C)nc2ccc(NC(=O)c3cccc(OCc4cncc5ccccc45)c3)cc12` [Example K-4, 3-(Isoquinolin-4-yl)methoxy-N-(2-methyl-4-methylsulfanyl-quinolin-6-yl)-benzamide hydrochloride] displayed an inhibition constant Ki of 64 nM. For the same compound, the IC50 in assay [2] (setting [5]) is 380 nM; in assay [3] (MV522) it was > 10 µM.
In the case of `Cc1ccc2cc(NC(=O)c3cccc(OCc4cccnc4)c3)ccc2n1` [Example K-9, N-(2-Methyl-quinolin-6-yl)-3-(pyridin-3-yl)methoxy-benzamide], the Ki in assay [1] was 109 nM; in assay [4], 10 nM.
Take `COc1cc(/C=C/c2cc(CNc3cccc(C(=O)Nc4ccc(C(C)C)c(C)c4)c3)[nH]n2)ccc1O` [Example I-1, 3-[({3-[(E)-2-(4-hydroxy-3-methoxyphenyl)ethenyl]-1H-pyrazol-5-yl}methyl)amino]-N-(3-methyl-4-isopropylphenyl)benzamide]: the affinity in assay [1], expressed as Ki, was 8.84 nM. Further, the IC50 in assay [2] (setting [5]) was 220 nM; in assay [3] (MV522), > 10 µM.
For `Cc1cc(NC(=O)c2cc(CCc3cncc4ccccc34)c(F)cc2Cl)ccc1C(C)C` [Example S-7, 2-Chloro-4-fluoro-N-(4-isopropyl-3-methyl-phenyl)-5-(2-isoquinolin-4-yl-ethyl)-benzamide], the inhibition at 0.05 µM in assay [4] (@ 50 nM, read-out: FLVK percent inhibition) was determined as 19%. For the same compound, the IC50 in assay [2] (setting [5]) is > 300 nM.
As for `CC(C)(C)c1cccc(NC(=O)c2cccc(CSc3ncnc4[nH]ncc34)c2)c1` [Example B-18, 3-[(1H-Pyrazolo[3,4-d]pyrimidin-4-yl)sulfanylmethyl]-N(3-t-butylpheny)-benzamide], the affinity in assay [1] corresponds to a Ki of 5.84 nM. Besides, the values for the IC50 in assay [2] (read-out: HUVEC IC50) and in assay [3] were 130 nM and > 10 µM, respectively.
Regarding `Cc1c(Br)cc(NC(=O)c2cccc(OCc3cncc4ccccc34)c2)cc1Br` [Example R-2, N-(3,5-Dibromo-4-methyl-phenyl)-3-(isoquinolin-4-ylmethoxy)-benzamide], in assay [1], affinity was put at a Ki of 2.53 nM. In addition, the values for the IC50 in assay [2] (setting [5]) and in assay [3] (MV522) were 110 nM and 0.43 µM, respectively.
In turn, `CC(C)(C)c1cc(C(=O)Nc2cccc(OCc3cncc4ccccc34)c2)ccc1O` [Example X-5, 3-t-Butyl-4-hydroxy-N-[3-(isoquinolin-4-ylmethoxy)-phenyl]-benzamide] displayed a Ki in assay [4] (setting [6]) of 1.3 nM. For the same compound, the IC50 in assay [2] (Homo sapiens, VEGF-stimulated HUVEC proliferation, read-out: HUVEC IC50) came out at 29 nM; in assay [3] (MV522 lung cancer cells), 3.7 µM.
`COc1cc(/C=C/c2cc(CSc3cccc(C(=O)Nc4ccc5nc(C)ccc5c4)c3)[nH]n2)ccc1O` [Example F-1, 3-[{5-((E)-2-(4-Hydroxy-3-methoxyphenyl)ethenyl)-2H-pyrazol-3-yl}methylsulfanyl]-N-(2-methylquinolin-6-yl)benzamide] had a Ki in assay [1] of 2.36 nM. Further, the IC50 is 710 nM in assay [2] (setting [5]) and > 10 µM in assay [3] (MV522).
In the case of `O=C(Nc1cccc(CSc2ncnc3[nH]ncc23)c1)c1cc(C(F)(F)F)cc(C(F)(F)F)c1` [Example V-2], the Ki in assay [1] came to 13 nM. Moreover, the IC50 in assay [2] (setting [5]) stood at 180 nM; in assay [3] (MV522) it was 10 µM.
For the compound `O=C(Nc1cc(C(F)(F)F)cc(C(F)(F)F)c1)c1cccc(CSc2ncnc3[nH]ncc23)c1` [Example B-17, 3-[(1H-Pyrazolo[3,4-d]pyrimidin-4-yl)sulfanylmethyl]-N(3,5-bis-trifluoromethylphenyl)-benzamide], the inhibition constant Ki in assay [1] worked out at 6.95 nM. The figures for the IC50 in assay [2] (setting [5]) and in assay [3] (MV522) were > 700 nM and > 10 µM, respectively.
In turn, `O=C(Nc1ccc(N2CCNCC2)c(C(F)(F)F)c1)c1ccc(F)c(OCc2cncc(Br)c2)c1` [Example R-25, 3-(5-Bromo-pyridin-3-ylmethoxy)-4-fluoro-N-(4-piperazin-1-yl-3-trifluoromethyl-phenyl)-benzamide] had a Ki in assay [4] of 6.6 nM. Also, in assay [2] (Homo sapiens, HUVEC, with albumin, read-out: Huvec + Albumin IC50), the IC50 was 155 nM.
Regarding `CC(C)c1cccc(NC(=O)c2cccc(CSc3ncnc4[nH]ncc34)c2)c1` [Example B-15, 3-[(1H-Pyrazolo[3,4-d]pyrimidin-4-yl)sulfanylmethyl]-N(3-isopropylphenyl)-benzamide], in assay [1], the inhibition constant Ki came to 15.7 nM. Besides, the IC50 is 120 nM in assay [2] (setting [5]) and > 10 µM in assay [3] (MV522).
The compound `O=C(Nc1ccc(N2CCNCC2)c(C(F)(F)F)c1)c1ccc(F)c(CCc2cnc3[nH]cnc3c2)c1` [DD-1, 4-Fluoro-3-[2-(3H-imidazo[4,5-b]pyridin-6-yl)-ethyl]-N-(4-piperazin-1-yl-3-trifluoromethyl-phenyl)-benzamide dihydrochloride] had an inhibition constant Ki in assay [4] (setting [6]) of 5.6 nM. In addition, in assay [2] (setting [7]), the IC50 worked out at 700 nM.

The values are drawn from US6635641B2 (Agouron Pharmaceuticals, Inc., priority 2000, dated 2003).
